Laboratory results taken from ChEMBL document CHEMBL2021911 (Bioorg Med Chem Lett, 2012).
pEC50, pIC50: −log10 of the molar value. Calls of active or inactive are those of the source. No cut-off for these calls is given here.

Tests used:
[1] = biological target: T1, Muscarinic acetylcholine receptor M4 (Homo sapiens, UniProt P08173); experiment: Antagonist activity at human muscarinic M4 receptor by calcium mobilization assay; assay type: functional; conditions: for pIC50: read-out: IC50
T1 sequence (P08173 whole entry): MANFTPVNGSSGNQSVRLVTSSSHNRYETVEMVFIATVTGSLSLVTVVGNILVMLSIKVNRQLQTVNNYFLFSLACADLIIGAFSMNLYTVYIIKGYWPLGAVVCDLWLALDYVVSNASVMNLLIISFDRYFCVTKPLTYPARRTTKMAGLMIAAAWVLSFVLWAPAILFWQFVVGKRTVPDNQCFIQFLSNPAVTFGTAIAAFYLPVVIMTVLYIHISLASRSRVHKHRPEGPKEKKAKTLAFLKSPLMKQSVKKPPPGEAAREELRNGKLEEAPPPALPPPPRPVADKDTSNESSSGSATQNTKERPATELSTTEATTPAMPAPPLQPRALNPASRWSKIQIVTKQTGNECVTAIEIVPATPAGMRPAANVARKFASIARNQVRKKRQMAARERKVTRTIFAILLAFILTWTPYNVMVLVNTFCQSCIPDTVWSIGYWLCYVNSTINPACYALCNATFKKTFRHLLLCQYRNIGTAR

[2] = biological target: T2, Muscarinic acetylcholine receptor M1 (Homo sapiens, UniProt P11229); experiment: Agonist activity at human muscarinic M1 receptor by calcium mobilization assay; assay type: functional
T2 sequence (P11229 whole entry): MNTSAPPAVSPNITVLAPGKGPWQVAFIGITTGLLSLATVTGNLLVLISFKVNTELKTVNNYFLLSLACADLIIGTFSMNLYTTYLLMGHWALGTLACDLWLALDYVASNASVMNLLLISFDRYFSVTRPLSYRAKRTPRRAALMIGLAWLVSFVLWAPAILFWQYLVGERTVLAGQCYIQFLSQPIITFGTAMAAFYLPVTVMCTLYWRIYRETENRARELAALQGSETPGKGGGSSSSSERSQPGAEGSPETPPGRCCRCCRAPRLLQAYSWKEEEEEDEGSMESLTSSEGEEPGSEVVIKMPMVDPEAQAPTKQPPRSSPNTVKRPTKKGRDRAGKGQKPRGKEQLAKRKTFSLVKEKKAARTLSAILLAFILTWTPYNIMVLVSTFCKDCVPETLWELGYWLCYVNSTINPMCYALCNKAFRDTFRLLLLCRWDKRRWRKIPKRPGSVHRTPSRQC

[3] = biological target: T3, Muscarinic acetylcholine receptor M3 (Homo sapiens, UniProt P20309); experiment: Antagonist activity at human muscarinic M3 receptor assessed as remaining activity measured as percentage of maximum response generated from 80% of saturating dose of ACh at 30 uM by calcium mobilization assay; assay type: functional
Target sequence in this assay (P20309 whole entry, looked up): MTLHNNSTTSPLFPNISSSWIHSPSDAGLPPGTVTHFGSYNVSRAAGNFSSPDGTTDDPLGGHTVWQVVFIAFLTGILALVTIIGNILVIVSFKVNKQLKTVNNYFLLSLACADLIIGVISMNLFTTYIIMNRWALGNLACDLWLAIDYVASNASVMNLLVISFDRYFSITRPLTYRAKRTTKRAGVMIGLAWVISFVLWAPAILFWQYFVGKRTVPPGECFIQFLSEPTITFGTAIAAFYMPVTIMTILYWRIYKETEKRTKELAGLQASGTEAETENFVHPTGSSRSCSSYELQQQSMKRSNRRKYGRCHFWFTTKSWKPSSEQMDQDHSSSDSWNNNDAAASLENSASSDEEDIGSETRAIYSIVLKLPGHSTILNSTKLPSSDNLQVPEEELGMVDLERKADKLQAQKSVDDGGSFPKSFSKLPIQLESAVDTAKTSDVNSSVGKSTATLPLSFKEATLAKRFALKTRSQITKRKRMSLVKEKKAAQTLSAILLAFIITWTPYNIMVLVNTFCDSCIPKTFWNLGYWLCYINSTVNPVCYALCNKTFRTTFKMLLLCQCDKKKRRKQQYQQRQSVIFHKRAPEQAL

[4] = biological target: T4, Muscarinic acetylcholine receptor M2 (Homo sapiens, UniProt P08172); experiment: Antagonist activity at human muscarinic M2 receptor by calcium mobilization assay; assay type: functional; conditions: for pIC50: read-out: IC50
T4 sequence (P08172 whole entry): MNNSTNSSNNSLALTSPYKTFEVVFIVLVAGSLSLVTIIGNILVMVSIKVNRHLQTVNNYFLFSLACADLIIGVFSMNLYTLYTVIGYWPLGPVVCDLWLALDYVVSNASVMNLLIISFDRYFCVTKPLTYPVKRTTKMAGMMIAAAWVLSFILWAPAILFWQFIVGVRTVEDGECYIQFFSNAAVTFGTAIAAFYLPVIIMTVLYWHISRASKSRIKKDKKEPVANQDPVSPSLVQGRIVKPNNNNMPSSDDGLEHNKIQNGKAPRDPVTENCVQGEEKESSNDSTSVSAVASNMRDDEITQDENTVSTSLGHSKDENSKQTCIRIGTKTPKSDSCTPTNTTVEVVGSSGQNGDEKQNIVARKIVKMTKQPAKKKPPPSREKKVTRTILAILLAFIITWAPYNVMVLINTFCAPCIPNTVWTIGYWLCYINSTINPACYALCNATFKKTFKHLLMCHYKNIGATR

[5] = biological target: T2, Muscarinic acetylcholine receptor M1; experiment: Agonist activity at human muscarinic M1 receptor; assay type: functional; conditions: read-out: EC50
[6] = biological target: T5, Muscarinic acetylcholine receptor M1 (Homo sapiens) (UniProt P11229); experiment: Agonist activity at human muscarinic M1 receptor at 30 uM by calcium mobilization assay relative to acetylcholine; assay type: functional
T5 sequence (whole entry): T2 sequence (P11229 whole entry)

[7] = biological target: T4, Muscarinic acetylcholine receptor M2; experiment: Agonist activity at human muscarinic M2 receptor by calcium mobilization assay; assay type: functional; conditions: for pEC50: read-out: EC50
[8] = biological target: T6, Muscarinic acetylcholine receptor M5 (Homo sapiens) (UniProt P08912); experiment: Agonist activity at human muscarinic M5 receptor at 30 uM by calcium mobilization assay relative to acetylcholine; assay type: functional
T6 sequence (whole entry): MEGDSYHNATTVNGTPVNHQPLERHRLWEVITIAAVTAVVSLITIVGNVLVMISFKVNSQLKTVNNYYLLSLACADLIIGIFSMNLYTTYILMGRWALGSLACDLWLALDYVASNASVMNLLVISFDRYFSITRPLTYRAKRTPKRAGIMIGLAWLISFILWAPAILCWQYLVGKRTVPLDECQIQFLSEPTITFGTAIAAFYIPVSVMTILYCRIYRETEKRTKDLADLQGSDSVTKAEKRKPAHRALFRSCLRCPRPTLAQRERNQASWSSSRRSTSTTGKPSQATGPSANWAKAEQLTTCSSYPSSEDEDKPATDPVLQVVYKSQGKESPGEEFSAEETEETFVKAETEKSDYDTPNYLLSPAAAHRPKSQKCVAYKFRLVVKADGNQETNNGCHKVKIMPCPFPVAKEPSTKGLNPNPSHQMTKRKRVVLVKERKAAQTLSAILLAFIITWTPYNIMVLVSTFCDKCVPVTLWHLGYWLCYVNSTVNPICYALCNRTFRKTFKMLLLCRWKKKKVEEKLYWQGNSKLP

[9] = biological target: T5, Muscarinic acetylcholine receptor M1 (Homo sapiens); experiment: Agonist activity at human muscarinic M1 receptor at 30 uM relative to acetylcholine; assay type: functional
[10] = biological target: T7, Muscarinic acetylcholine receptor M5 (Homo sapiens, UniProt P08912); experiment: Agonist activity at human muscarinic M5 receptor by calcium mobilization assay; assay type: functional; conditions: for pEC50: read-out: EC50
T7 sequence (P08912 whole entry): T6 sequence (whole entry)

[11] = biological target: T5, Muscarinic acetylcholine receptor M1 (Homo sapiens); experiment: Agonist activity at human muscarinic M1 receptor expressed in TREx293 cells assessed as increase of soluble APPalpha release at 2 uM; assay type: functional, cell-based; conditions: HEK293
[12] = biological target: T3, Muscarinic acetylcholine receptor M3; experiment: Antagonist activity at human muscarinic M3 receptor by calcium mobilization assay
Target sequence in this assay (P20309 whole entry): as the sequence (P20309 whole entry, looked up) above

[13] = biological target: T8, Muscarinic acetylcholine receptor M4 (Homo sapiens) (UniProt P08173); experiment: Antagonist activity at human muscarinic M4 receptor assessed as remaining activity measured as percentage of maximum response generated from 80% of saturating dose of ACh at 30 uM by calcium mobilization assay; assay type: functional
T8 sequence (whole entry): T1 sequence (P08173 whole entry)

[14] = biological target: T3, Muscarinic acetylcholine receptor M3; experiment: Agonist activity at human muscarinic M3 receptor by calcium mobilization assay; assay type: functional; conditions: for pEC50: read-out: EC50
Target sequence in this assay (P20309 whole entry): as the sequence (P20309 whole entry, looked up) above

[15] = biological target: T1, Muscarinic acetylcholine receptor M4; experiment: Agonist activity at human muscarinic M4 receptor by calcium mobilization assay; assay type: functional
[16] = biological target: T7, Muscarinic acetylcholine receptor M5; experiment: Antagonist activity at human muscarinic M5 receptor by calcium mobilization assay; assay type: functional
[17] = biological target: T9, Muscarinic acetylcholine receptor M2 (Homo sapiens) (UniProt P08172); experiment: Antagonist activity at human muscarinic M2 receptor assessed as remaining activity measured as percentage of maximum response generated from 80% of saturating dose of ACh at 30 uM by calcium mobilization assay; assay type: functional
T9 sequence (whole entry): T4 sequence (P08172 whole entry)

[18] = biological target: T3, Muscarinic acetylcholine receptor M3; experiment: Agonist activity at human muscarinic M3 receptor at 30 uM by calcium mobilization assay relative to acetylcholine; assay type: functional
Target sequence in this assay (P20309 whole entry, looked up): as the sequence (P20309 whole entry, looked up) above

[19] = biological target: T9, Muscarinic acetylcholine receptor M2 (Homo sapiens); experiment: Agonist activity at human muscarinic M2 receptor at 30 uM by calcium mobilization assay relative to acetylcholine; assay type: functional
[20] = AUC in rat at 10 mg/kg, po; assay type: ADME, organism-based; set-up: dose 10 mg/kg, route oral; conditions: plasma
[21] = Volume of distribution at steady state in rat at 1 mg/kg, iv and 10 mg/kg, po; assay type: ADME, organism-based; conditions: in vivo, read-out: Vdss
[22] = Half life in rat at 1 mg/kg, iv and 10 mg/kg, po; assay type: ADME, organism-based; conditions: in vivo
[23] = biological target: Muscarinic acetylcholine receptors; M1 & M2 (Homo sapiens) (UniProt P11229+P08172); experiment: Selectivity ratio of EC50 for human muscarinic M2 receptor to EC50 for human muscarinic M1 receptor
[24] = Oral bioavailability in rat at 10 mg/kg; assay type: ADME, organism-based; conditions: in vivo
[25] = Clearance in rat at 1 mg/kg, iv and 10 mg/kg, po; assay type: ADME, organism-based; conditions: in vivo
[26] = biological target: T8, Muscarinic acetylcholine receptor M4 (Homo sapiens); experiment: Agonist activity at human muscarinic M4 receptor at 30 uM by calcium mobilization assay relative to acetylcholine; assay type: functional
[27] = AUC in rat at 1 mg/kg, iv; assay type: ADME, organism-based; set-up: dose 1 mg/kg, route intravenous; conditions: plasma

| SMILES | pIC50 [1] | pEC50 [2] | IC50 [4] | pEC50 [5] | Activity [6] [%] | EC50 [7] | Activity [8] [%] | Activity [9] [%] | pEC50 [10] | Activity [11] | Activity [13] [%] | IC50 [1] | EC50 [14] | EC50 [15] | other results |
| --- | --- | --- | --- | --- | --- | --- | --- | --- | --- | --- | --- | --- | --- | --- | --- |
| CCOC(=O)N1C[C@H]2CC[C@@H](C1)[C@H]2NCCNC(=O)c1ccccc1 | < 5.00 | 7.74 | Not Active | 7.04 | 46 | Not Active | 31 | 53 | 5.55 | Active | 48 |  |  |  | Activity [3]: 45%; pIC50 [12]: < 5.00 |
| CCOC(=O)N1CCC(NCCNC(=O)c2ccccc2C)CC1 |  | 5.59 | Not Active | 5.80 | 34 | Not Active |  | 35 |  | Active |  | Not Active | Not Active | Not Active | EC50 [10]: Not Active; IC50 [16]: Not Active |
| CCOC(=O)N1[C@@H]2CC[C@H]1C[C@H](NCCNC(=O)c1ccccc1)C2 |  |  | Not Active | 6.01 | 57 | Not Active |  | 49 |  | Active |  | Not Active | Not Active | Not Active | EC50 [10]: Not Active; IC50 [16]: Not Active |
| CCOC(=O)N1C[C@H]2CC[C@@H](C1)[C@H]2NCCNC(=O)c1cccc(Cl)c1 | < 5.00 | 7.02 | Not Active | 7.33 | 58 | Not Active | 22 | 52 | 5.38 |  | 40 |  | Not Active |  |  |
| CCOC(=O)N1[C@@H]2CC[C@H]1C[C@@H](NCCNC(=O)c1ccccc1)C2 | 5.51 |  |  | 6.96 | 37 |  |  | 34 |  | Active | 2 |  |  |  | Activity [3]: 13%; pIC50 [4]: < 5.00; Activity [17]: 15%; pIC50 [12]: < 5.00; pIC50 ([16]; read-out: IC50): 5.31 |
| CCCCC1CCN(CCCN2C(=O)COc3cc(F)ccc32)CC1 | < 5.00 | 7.39 |  |  | 81 |  | 28 |  | 6.00 |  | 26 |  |  |  | pEC50 [14]: 5.23; pIC50 [4]: < 5.00; Activity [17]: 30%; Activity [18]: 19% |
| CCOC(=O)N1C2CCC1CC(N1CCC[C@@H](NC(=O)c3ccccc3)C1)C2 (mixture of isomers) |  | 6.46 |  | 6.08 | 65 |  | 21 | 75 | < 5.00 | Active |  | Not Active | Not Active | Not Active | Activity [19]: 27%; pEC50 [7]: < 5.00 |
| CCOC(=O)N1C2CCC1CC(N1CCC[C@@H](NC(=O)c3ccccc3C)C1)C2 (mixture of isomers) |  | 7.77 |  | 7.23 | 59 |  | 62 | 75 | 5.43 | Active |  |  |  |  | Activity [19]: 66%; pEC50 [14]: < 5.00; AUC [20]: 639 ng·h/mL; pEC50 ([15]; read-out: EC50): < 5.00; Vd [21]: 11.8 L/kg; half-life [22]: 46 min; Ratio EC50 [23]: 100; bioavailability [24]: 70%; pEC50 [7]: 5.74; clearance [25]: 189 mL/min/kg; Activity [26]: 28%; Activity [18]: 36%; AUC [27]: 92.2 ng·h/mL |
